Test results from patent US6376497B1, “Antifungal azole derivatives having a fluorinated vinyl group and process for preparing same” (Korea Research Institute of Chemical Technology, priority 1999, dated 2002).

Assays:
Test in all cases: In vitro antifungal activity, microbroth dilution MIC
Format in all cases: cell-based
Candida krusei K. 11655 = conditions: 4 to 48 hours; for Minimal inhibitory concentration(MIC), C. krusei K. 11655: RPMI-1640, 35° C., no growth observed
Method: (§1) In vitro antifungal activities of the inventive antifungal compounds were evaluated using the test strains shown in Table VIII by the following microbroth dilution method which is a modified version of the procedure recommended by National Committee for Clinical Laboratory Standards(see National Committee for Clinical Laboratory Standards, 1992, Reference methods for broth dilution antifungal susceptibility testing of yeasts, Proposed standard M27-P, National Committee for clinical laboratory standards, Villanova, Pa; and National Committee for Clinical Laboratory Standards, 1995, Reference methods for broth dilution antifungal susceptibility testing of yeasts. Tentative standard M27-T, National Committee for clinical laboratory standards, Villanova, Pa).
(§2) Sabourad Dextrose Agar(Difco) was used as a culture medium, and RPMI-1640 broth(Sigma. Co. w/L-glutamine, wo/NaHCO3)(0.165 M MOPS, pH 7.0), as a dilution medium.
(§3) Each of the test strains were subcultured in Sabourad Dextrose Agar medium twice and a stain sample was taken from prominent colonies and suspended in sterile physiological saline solution in a cap tube. The turbidity of the suspension was adjusted to that of the Mcfarland 0.5 standard sample(approximately 10^6 CFU/ml). Then the suspension was diluted 500-fold with sterile RPMI-1640 liquid medium to 2×10^3 CFU/ml.
(§4) Each of the test compounds(the compounds obtained in Examples 1 to 150 and comparative compounds, i.e., fluconazole(FCZ) and itraconazole (ICZ)), was dissolved in DMSO to give a stock solution having a concentration of 4000 μg/ml and the stock solution was successively diluted to obtain test solutions having test compound concentrations of 200, 100, 50, 25, 12.5, 6.25, 3.13, 1.56, 0.78, 0.39, 0.20 and 0.10 μg/ml, respectively.
(§5) 0.1 ml portion of the test solutions were added to the wells of a sterile 96 well plate. Then, 0.1 ml portion of each of the test strain solutions were added successively to the wells and the plate was incubated at 35° C. for 4 to 48 hours.
(§6) Minimal inhibitory concentration(MIC) of each compound was defined as the concentration of the test compound where no growth of the strain could be observed.

[1] = test system: Candida albicans A. 10231; conditions: 4 to 48 hours; for Minimal inhibitory concentration(MIC), C. albicans A. 10231: RPMI-1640, 35° C., no growth observed
Method: as §1, §2, §3, §4, §5, §6

[2] = test system: Cryptococcus neoformans IFM. 40092; conditions: 4 to 48 hours; for Minimal inhibitory concentration(MIC), Cry. neoformans IFM. 40092: RPMI-1640, 35° C., no growth observed
Method: as §1, §2, §3, §4, §5, §6

[3] = test system: Candida parapsitosis A. 7330; conditions: 4 to 48 hours; for Minimal inhibitory concentration(MIC), C. parapsitosis A. 7330: RPMI-1640, 35° C., no growth observed
Method: as §1, §2, §3, §4, §5, §6

[4] = test system: Cryptococcus neoformans B. 42419; conditions: 4 to 48 hours; for Minimal inhibitory concentration(MIC), Cry. neoformans B. 42419: RPMI-1640, 35° C., no growth observed
Method: as §1, §2, §3, §4, §5, §6

[5] = test system: Cryptococcus neoformans A. 34144; conditions: 4 to 48 hours; for Minimal inhibitory concentration(MIC), Cry. neoformans A. 34144: RPMI-1640, 35° C., no growth observed
Method: as §1, §2, §3, §4, §5, §6

[6] = test system: Candida tropicalis A. 13803; conditions: 4 to 48 hours; for Minimal inhibitory concentration(MIC), C. tropicalis A. 13803: RPMI-1640, 35° C., no growth observed
Method: as §1, §2, §3, §4, §5, §6

[7] = test system: Trichophyton mentagrophytes A. 9129; conditions: 4 to 48 hours; for Minimal inhibitory concentration(MIC), T. mentagrophytes A. 9129: RPMI-1640, 35° C., no growth observed
Method: as §1, §2, §3, §4, §5, §6

[8] = test system: Trichophyton mentagrophytes B. 32663; conditions: 4 to 48 hours; for Minimal inhibitory concentration(MIC), T. mentagrophytes B. 32663: RPMI-1640, 35° C., no growth observed
Method: as §1, §2, §3, §4, §5, §6

[9] = test system: Aspergillus furnigatus B. 19119; conditions: 4 to 48 hours; for Minimal inhibitory concentration(MIC), A furnigatus B. 19119: RPMI-1640, 35° C., no growth observed
Method: as §1, §2, §3, §4, §5, §6

Candida albicans C1-2 = conditions: 4 to 48 hours; for Minimal inhibitory concentration(MIC), C. albicans C1-2: RPMI-1640, 35° C., no growth observed
Method: as §1, §2, §3, §4, §5, §6

[10] = test system: Candida pseudotropicalis K. 11658; conditions: 4 to 48 hours; for Minimal inhibitory concentration(MIC), C. pseudotropicalis K. 11658: RPMI-1640, 35° C., no growth observed
Method: as §1, §2, §3, §4, §5, §6

[11] = test system: Aspergillus niger A. 16404; conditions: 4 to 48 hours; for Minimal inhibitory concentration(MIC), A. niger A. 16404: RPMI-1640, 35° C., no growth observed
Method: as §1, §2, §3, §4, §5, §6

[12] = test system: Torulopsis glabrata B. 16205; conditions: 4 to 48 hours; for Minimal inhibitory concentration(MIC), T. glabrata B. 16205: RPMI-1640, 35° C., no growth observed
Method: as §1, §2, §3, §4, §5, §6

[13] = test system: Candida albicans IFO. 1385; conditions: 4 to 48 hours; for Minimal inhibitory concentration(MIC), C. albicans IFO. 1385: RPMI-1640, 35° C., no growth observed
Method: as §1, §2, §3, §4, §5, §6

| Compound | Minimal inhibitory concentration(MIC), C. krusei K. 11655 (Candida krusei K. 11655) | Minimal inhibitory concentration(MIC), C. albicans A. 10231 [1] | Minimal inhibitory concentration(MIC), Cry. neoformans IFM. 40092 [2] | Minimal inhibitory concentration(MIC), C. parapsitosis A. 7330 [3] | Minimal inhibitory concentration(MIC), Cry. neoformans B. 42419 [4] | Minimal inhibitory concentration(MIC), Cry. neoformans A. 34144 [5] | Minimal inhibitory concentration(MIC), C. tropicalis A. 13803 [6] | Minimal inhibitory concentration(MIC), T. mentagrophytes A. 9129 [7] | Minimal inhibitory concentration(MIC), T. mentagrophytes B. 32663 [8] | Minimal inhibitory concentration(MIC), A furnigatus B. 19119 [9] | Minimal inhibitory concentration(MIC), C. albicans C1-2 (Candida albicans C1-2) | Minimal inhibitory concentration(MIC), C. pseudotropicalis K. 11658 [10] | Minimal inhibitory concentration(MIC), A. niger A. 16404 [11] | Minimal inhibitory concentration(MIC), T. glabrata B. 16205 [12] | Minimal inhibitory concentration(MIC), C. albicans IFO. 1385 [13] | further results |
| --- | --- | --- | --- | --- | --- | --- | --- | --- | --- | --- | --- | --- | --- | --- | --- | --- |
| COc1ccc(C(=C(F)Oc2ccc(OCC3COC(Cn4ccnc4)(c4ccc(Cl)cc4Cl)O3)cc2)C(F)(F)F)cc1 (mixture of isomers) [Ex. 98] | >100 mg/L | 50.0 mg/L | 0.78 mg/L | >100 mg/L | 6.25 mg/L | 3.13 mg/L | >100 mg/L | 25.0 mg/L | 6.25 mg/L | >100 mg/L | 100 mg/L | >100 mg/L | >100 mg/L | 50 mg/L | 3.13 mg/L | – |
| Cc1ccc(C(=C(F)OCC2COC(Cn3ccnc3)(c3ccc(F)cc3F)O2)C(F)(F)F)cc1 (mixture of isomers) [Ex. 54] | – | – | – | – | – | – | – | – | – | – | – | – | – | – | – | Minimal inhibitory concentration (MIC) (Candida krusei K. 11655; C. krusei K. 11655, RPMI-1640, 35° C.): >100 mg/L; Minimal inhibitory concentration (MIC) ([1]; C. albicans A. 10231, RPMI-1640, 35° C.): 12.5 mg/L; Minimal inhibitory concentration (MIC) ([2]; Cry. neoformans IFM. 40092, RPMI-1640, 35° C.): ≦0.10 μg/ml; Minimal inhibitory concentration (MIC) ([3]; C. parapsitosis A. 7330, RPMI-1640, 35° C.): >100 mg/L; Minimal inhibitory concentration (MIC) ([4]; Cry. neoformans B. 42419, RPMI-1640, 35° C.): 0.78 mg/L; Minimal inhibitory concentration (MIC) ([5]; Cry. neoformans A. 34144, RPMI-1640, 35° C.): 1.56 mg/L; Minimal inhibitory concentration (MIC) ([6]; C. tropicalis A. 13803, RPMI-1640, 35° C.): 100 mg/L; Minimal inhibitory concentration (MIC) ([7]; T. mentagrophytes A. 9129, RPMI-1640, 35° C.): 3.13 mg/L; Minimal inhibitory concentration (MIC) ([8]; T. mentagrophytes B. 32663, RPMI-1640, 35° C.): 1.56 mg/L; Minimal inhibitory concentration (MIC) ([9]; A furnigatus B. 19119, RPMI-1640, 35° C.): 3.13 mg/L; Minimal inhibitory concentration (MIC) (Candida albicans C1-2; C. albicans C1-2, RPMI-1640, 35° C.): 25.0 mg/L; Minimal inhibitory concentration (MIC) ([10]; C. pseudotropicalis K. 11658, RPMI-1640, 35° C.): 100 mg/L; Minimal inhibitory concentration (MIC) ([11]; A. niger A. 16404, RPMI-1640, 35° C.): 25.0 mg/L; Minimal inhibitory concentration (MIC) ([12]; T. glabrata B. 16205, RPMI-1640, 35° C.): 6.25 mg/L; Minimal inhibitory concentration (MIC) ([13]; C. albicans IFO. 1385, RPMI-1640, 35° C.): 0.78 mg/L |
| CCc1ccc(C(=C(F)N2CCN(c3ccc(OCC4COC(Cn5ccnc5)(c5ccc(Cl)cc5Cl)O4)cc3)CC2)C(F)(F)F)cc1 (mixture of isomers) [Ex. 127] | 3.13 mg/L | >100 mg/L | 0.39 mg/L | 3.13 mg/L | 0.78 mg/L | 0.78 mg/L | >100 mg/L | 12.5 mg/L | 3.13 mg/L | >100 mg/L | >100 mg/L | 1.56 mg/L | >100 mg/L | >100 mg/L | 3.13 mg/L | – |
| FC(Oc1ccc(OCC2COC(Cn3cncn3)(c3ccc(Cl)cc3Cl)O2)cc1)=C(c1ccc(Cl)cc1)C(F)(F)F (mixture of isomers) [Ex. 122] | 12.5 mg/L | 12.5 mg/L | 0.20 mg/L | 6.25 mg/L | 1.56 mg/L | 0.78 mg/L | 25.0 mg/L | 6.25 mg/L | 3.13 mg/L | 12.5 mg/L | 6.25 mg/L | 6.25 mg/L | 100 mg/L | 12.5 mg/L | 0.78 mg/L | – |
